Results reported in ChEMBL document CHEMBL5137114, “Discovery of IHMT-MST1-58 as a Novel, Potent, and Selective MST1 Inhibitor for the Treatment of Type 1/2 Diabetes” (J Med Chem, 2022).
The source made the active and inactive calls. The calls are words filed in the database; no cut-off is given here.

How the values were obtained:
[1] = AUC (0 to t) in Beagle dog at 10 mg/kg, po measured up to 24 hrs by LC-MS/MS analysis; type: ADME, organism-based, Canis lupus familiaris; design: dose 10 mg/kg, time < 24 hrs, route po; conditions: in vivo
RIN-m5F [2] = assay: Protection against TNF-alpha-induced cell damage in rat RIN-m5F cells assessed as increase in cell survival at 0.03 to 0.3 uM incubated for 48 hrs by Cell Titer-Glo assay; type: functional, cell-based; conditions: dose 0.03-0.3 µM
[3] = Cmax in Beagle dog at 10 mg/kg, po measured up to 24 hrs by LC-MS/MS analysis; type: ADME, organism-based, Canis lupus familiaris; design: time < 24 hrs, dose 10 mg/kg, route po; conditions: in vivo
INS1 [4] = assay: Cytotoxicity against rat INS1 cells at 10 uM incubated for 72 hrs by Cell Titer-Glo assay; type: toxicity, cell-based; conditions: ins1, 72 h
RIN-m5F [5] = assay: Protection against IFN-gamma-induced cell damage in rat RIN-m5F cells assessed as increase in cell survival at 0.03 to 0.3 uM incubated for 48 hrs by Cell Titer-Glo assay; type: functional, cell-based; conditions: dose 0.03-0.3 µM
[6] = molecular target: T1, Serine/threonine-protein kinase 4 (Homo sapiens, UniProt Q13043); assay: Binding affinity to wild-type human full length MST1 (M1 to F487 residues) expressed in bacterial expression system by Kinomescan method
T1 sequence (Q13043 whole entry): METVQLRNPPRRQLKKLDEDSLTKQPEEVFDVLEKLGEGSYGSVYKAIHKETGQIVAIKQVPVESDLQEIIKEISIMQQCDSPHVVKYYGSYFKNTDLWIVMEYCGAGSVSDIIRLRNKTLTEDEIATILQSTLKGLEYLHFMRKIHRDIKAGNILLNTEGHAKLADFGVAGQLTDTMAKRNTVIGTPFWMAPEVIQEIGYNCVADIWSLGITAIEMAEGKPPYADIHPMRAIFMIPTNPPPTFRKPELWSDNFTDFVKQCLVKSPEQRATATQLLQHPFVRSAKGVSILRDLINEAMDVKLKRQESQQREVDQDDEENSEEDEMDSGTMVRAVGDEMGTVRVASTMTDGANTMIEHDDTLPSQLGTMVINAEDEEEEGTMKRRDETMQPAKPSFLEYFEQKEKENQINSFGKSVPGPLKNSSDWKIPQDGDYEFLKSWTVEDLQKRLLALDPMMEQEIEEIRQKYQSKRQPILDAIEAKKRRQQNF

[7] = Oral bioavailability in mouse at 10 mg/kg measured up to 24 hrs by LC-MS/MS analysis; type: ADME, organism-based; conditions: in vivo
[8] = molecular target: T2, Serine/threonine-protein kinase 3 (Homo sapiens, UniProt Q13188); assay: Inhibition of recombinant full length N-terminal GST -tagged human MST2 expressed in baculovirus infected Sf9 insect cells using KKSRGDYMTMQIG as substrate incubated for 1 hr in presence of ATP by ADP-Glo luminescent assay
T2 sequence (Q13188 whole entry): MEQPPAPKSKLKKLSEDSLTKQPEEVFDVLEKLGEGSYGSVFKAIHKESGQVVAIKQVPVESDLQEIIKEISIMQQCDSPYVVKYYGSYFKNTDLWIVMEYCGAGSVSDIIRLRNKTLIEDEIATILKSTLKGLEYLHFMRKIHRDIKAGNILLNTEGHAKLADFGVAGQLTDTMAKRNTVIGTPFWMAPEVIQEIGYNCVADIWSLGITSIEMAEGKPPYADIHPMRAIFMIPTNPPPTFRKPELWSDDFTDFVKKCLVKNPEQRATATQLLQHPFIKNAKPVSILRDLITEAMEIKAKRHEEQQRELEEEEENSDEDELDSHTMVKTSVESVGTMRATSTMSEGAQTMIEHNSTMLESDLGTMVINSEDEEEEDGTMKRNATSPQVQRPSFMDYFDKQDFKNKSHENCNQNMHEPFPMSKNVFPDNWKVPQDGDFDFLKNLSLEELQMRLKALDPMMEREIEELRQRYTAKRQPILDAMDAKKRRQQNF

[9] = tested on: Serine/threonine-protein kinase 4 (Rattus norvegicus); assay: Inhibition of INF-gamma-stimulated MST1 in rat INS1 cells assessed as reduction in MOB1 autophosphorylation incubated for 12 hrs by Western blotting analysis; conditions: dose 0.1-10 µM, DDE = dose-dependent effect
INS1 [10] = assay: Protection against IL-1beta-induced cell damage in rat INS1 cells assessed as increase in cell survival at 0.03 to 0.3 uM incubated for 48 hrs by Cell Titer-Glo assay; type: functional, cell-based; conditions: dose 0.03-0.3 µM
Mus musculus [11] = assay: Antidiabetic activity against multi low dose STZ-induced C57BL/6J mouse model of type 1 diabetes assessed as food intake at 50 mg/kg, po administered for 1 to 2 days (reference value: 4.5 g/day); type: functional; conditions: time 1-2 day
[12] = Half life in Sprague-Dawley rat at 10 mg/kg, po measured up to 24 hrs by LC-MS/MS analysis; type: ADME, organism-based; conditions: in vivo
Mus musculus [13] = assay: Antidiabetic activity against multi low dose STZ-induced C57BL/6J mouse model of type 1 diabetes assessed as food intake at 50 mg/kg, po administered for 1 to 2 days in presence of metformin (reference value: 4.5 g/day); type: functional; conditions: time 1-2 day
[14] = Half life in Sprague-Dawley rat at 1 mg/kg, iv measured up to 12 hrs by LC-MS/MS analysis; type: ADME, organism-based; conditions: in vivo
Mus musculus [15] = assay: Antidiabetic activity against multi low dose STZ-induced C57BL/6J mouse model of type 1 diabetes assessed as food intake at 50 mg/kg, po administered for 78 to 79 days in presence of metformin (reference value: 4.7 g/day); type: functional; conditions: time 78-79 day
[16] = tested on: Serine/threonine-protein kinase 4 (Rattus norvegicus); assay: Inhibition of IL-1beta[…]-stimulated MST1 in rat RIN-m5F cells assessed as reduction in MOB1 autophosphorylation incubated for 12 hrs by Western blotting analysis; conditions: dose 0.1-10 µM, DDE = dose-dependent effect
[17] = AUC (0 to t) in mouse at 1 mg/kg, iv measured up to 12 hrs by LC-MS/MS analysis; type: ADME, organism-based; design: time < 12 hrs, dose 1 mg/kg, route iv; conditions: in vivo
[18] = Half life in mouse at 1 mg/kg, iv measured up to 12 hrs by LC-MS/MS analysis; type: ADME, organism-based; conditions: in vivo
[19] = AUC (0 to t) in Beagle dog at 1 mg/kg, iv measured up to 12 hrs by LC-MS/MS analysis; type: ADME, organism-based, Canis lupus familiaris; design: time < 12 hrs, dose 1 mg/kg, route iv; conditions: in vivo
[20] = Cmax in mouse plasma at 50 mg/kg, po measured up to 24 hrs by LC-MS/MS analysis; type: ADME, organism-based; design: dose 50 mg/kg, time < 24 hrs, route po
[21] = Toxicity in high multi low dose STZ-induced C57BL/6J mouse model of Type 1 diabetes assessed as effect on body weight at 50 mg/kg, po qd in presence of metformin; type: organism-based; conditions: in vivo
[22] = Cmax in mouse at 10 mg/kg, po measured up to 24 hrs by LC-MS/MS analysis; type: ADME, organism-based; design: dose 10 mg/kg, time < 24 hrs, route po; conditions: in vivo
[23] = Cmax in Sprague-Dawley rat at 10 mg/kg, po measured up to 24 hrs by LC-MS/MS analysis; type: ADME, organism-based; design: dose 10 mg/kg, time < 24 hrs, route po; conditions: in vivo
[24] = Cytotoxicity against rat RIN-m5F cells at 10 uM incubated for 72 hrs by Cell Titer-Glo assay; type: toxicity, cell-based
[25] = molecular target: T1, Serine/threonine-protein kinase 4; assay: Inhibition of recombinant full length N-terminal GST -tagged human MST1 expressed in baculovirus infected Sf9 insect cells using KKSRGDYMTMQIG as substrate incubated for 1 hr in presence of ATP by ADP-Glo luminescent assay

With `Cc1ccccc1C1C(=O)N(C)c2cnc(Nc3ccc(S(N)(=O)=O)cc3)nc2N1C` (stereo not given) the AUC(0-t) at 24 h [1] was 4940 ng·h/mL, the Activity (RIN-m5F [2]) was “Active” and the Cmax [3] was 1110 ng/mL. For the same compound, the Activity (INS1 [4]) was “Non-Toxic”, the Activity (RIN-m5F [5]) was “Active” and the Kd [6] was 240 nM. For the same compound, the bioavailability [7] was 111%, the IC50 [8] was 652 nM and the inhibition [9] was “Dde”. For the same compound, the Activity (INS1 [10]) was “Active”, the Activity (Mus musculus [11]) was 4.5 g/day and the half-life [12] was 3.03 h. For the same compound, the Activity (Mus musculus [13]) was 5.4 g/day, the half-life [14] was 3.51 h and the Activity (Mus musculus [15]) was 4.1 g/day. The inhibition [16] was “Dde”, the AUC(0-t) at 12 h [17] was 501 ng·h/mL and the half-life [18] was 1.7 h. The AUC(0-t) at 12 h [19] was 764 ng·h/mL, the Cmax [20] was 3990 ng/mL and the Activity [21] was “Non-Toxic”. The Cmax [22] was 1920 ng/mL, the Cmax [23] was 1720 ng/mL and the Activity [24] was “Non-Toxic”. It also gave an IC50 [25] of 23 nM.
